Several values for one entry are separate records, joined by “and”; a condition that tells them apart may be missing. Equal entries are not always repeated. Where two headings read alike, the source gives them in different places.
What was measured:
[1] = tested on: HFGR-I P. falciparum (elevated proline homeostasis and PfcProRS^L482H); assay: P. falciparum ABS growth assay, SYBR Green, 72 h, HFGR-I parasites; format: cell-based, Plasmodium falciparum; conditions: HFGR-I
In short: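 Asexual blood-stage Dd2 parasites, 1% parasitemia/1% hematocrit, RPMI + 0.5% Albumax; triplicate dose-response, 72 h. Readout SYBR Green 1 fluorescence. Controls: 10 μM dihydroartemisinin (kill), no compound (growth). EC50 values determined.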

[2] = tested on: P. falciparum Dd2-2D4; assay: P. falciparum asexual blood stage (ABS) growth assay, SYBR Green, 72 h, wild-type parasites; format: cell-based, Plasmodium falciparum; conditions: for parasite growth, replicate wells (Fig 1b): Dd2-2D4
[3] = biological target: T1, PfcProRS (Plasmodium falciparum, UniProt Q8I5R7); format: binding; conditions: for dose-response signal (normalized), SI Fig 8: single replicates
T1 construct: made in house; host or cells: E. coli SoluBL-21

[4] = biological target: HsProRS (Homo sapiens, UniProt P07814); assay: TR-FRET ligand displacement assay with tracer MAT379 (CoraFluor-1-Halo and anti-His6 antibody formats); format: binding; set-up: made in house; host or cells: E. coli SoluBL-21; conditions: for TR-FRET dose-response, normalized signal (SI Fig 11): individual replicates
Chain of HsProRS (P07814 996-1512): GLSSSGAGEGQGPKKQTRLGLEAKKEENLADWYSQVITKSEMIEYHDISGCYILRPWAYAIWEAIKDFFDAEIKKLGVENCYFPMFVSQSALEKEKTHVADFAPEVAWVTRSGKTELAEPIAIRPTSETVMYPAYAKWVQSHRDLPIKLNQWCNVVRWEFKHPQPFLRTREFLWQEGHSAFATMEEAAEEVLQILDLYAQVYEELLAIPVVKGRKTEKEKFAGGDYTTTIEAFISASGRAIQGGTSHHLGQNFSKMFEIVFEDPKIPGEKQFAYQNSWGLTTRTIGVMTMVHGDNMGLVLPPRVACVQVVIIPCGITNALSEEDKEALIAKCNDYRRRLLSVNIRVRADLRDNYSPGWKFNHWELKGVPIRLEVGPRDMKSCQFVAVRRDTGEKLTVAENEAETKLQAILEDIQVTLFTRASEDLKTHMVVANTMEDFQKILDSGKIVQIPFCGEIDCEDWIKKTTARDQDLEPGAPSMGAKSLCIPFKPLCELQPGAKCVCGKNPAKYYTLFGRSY

T1 sequence (Q8I5R7 249-746): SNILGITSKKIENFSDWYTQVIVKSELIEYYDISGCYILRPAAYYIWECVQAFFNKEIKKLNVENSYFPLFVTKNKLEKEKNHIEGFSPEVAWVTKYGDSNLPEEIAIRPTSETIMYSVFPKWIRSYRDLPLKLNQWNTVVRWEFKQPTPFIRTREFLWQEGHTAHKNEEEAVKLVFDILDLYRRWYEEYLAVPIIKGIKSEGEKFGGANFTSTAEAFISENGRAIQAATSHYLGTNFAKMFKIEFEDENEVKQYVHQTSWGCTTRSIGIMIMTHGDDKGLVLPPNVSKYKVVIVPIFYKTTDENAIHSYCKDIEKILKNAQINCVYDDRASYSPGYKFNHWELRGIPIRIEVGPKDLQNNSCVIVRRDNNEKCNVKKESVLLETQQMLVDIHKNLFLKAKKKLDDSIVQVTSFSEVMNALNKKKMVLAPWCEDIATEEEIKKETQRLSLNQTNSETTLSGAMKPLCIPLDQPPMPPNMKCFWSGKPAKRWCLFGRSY

## O=C(NC1Cc2ccccc2C1)c1nccnc1NC(=O)C1CCCCC1 [compound 2, reference compound]
[1]; Log[inhibitor] (M) -5.000
  parasite growth, replicate wells (Fig 1b): 6.00E+00 (2×) and 7.00E+00
[1]; Log[inhibitor] (M) -5.408
  parasite growth, replicate wells (Fig 1b): 7.00E+00 (2×) and 8.00E+00
[1]; Log[inhibitor] (M) -5.816
  parasite growth, replicate wells (Fig 1b): 1.20E+01 (2×) and 1.40E+01
[1]; Log[inhibitor] (M) -6.222
  parasite growth, replicate wells (Fig 1b): 6.90E+01 (2×) and 7.10E+01
[1]; Log[inhibitor] (M) -6.638
  parasite growth, replicate wells (Fig 1b): 8.90E+01 and 9.90E+01 and 9.60E+01
[1]; Log[inhibitor] (M) -7.046
  parasite growth, replicate wells (Fig 1b): 9.70E+01 and 1.01E+02 (2×)
[1]; Log[inhibitor] (M) -7.450
  parasite growth, replicate wells (Fig 1b): 8.80E+01 and 9.60E+01 and 1.00E+02
[1]; Log[inhibitor] (M) -7.854
  parasite growth, replicate wells (Fig 1b): 1.06E+02 and 1.07E+02 and 9.90E+01
[1]; Log[inhibitor] (M) -8.260
  parasite growth, replicate wells (Fig 1b): 1.03E+02 and 9.80E+01 and 1.01E+02
[1]; Log[inhibitor] (M) -8.699
  parasite growth, replicate wells (Fig 1b): 9.70E+01 (2×) and 9.90E+01
[1]; Log[inhibitor] (M) -9.000
  parasite growth, replicate wells (Fig 1b): 1.04E+02 and 1.02E+02 and 9.80E+01
[1]; Log[inhibitor] (M) -9.488
  parasite growth, replicate wells (Fig 1b): 9.60E+01 and 9.50E+01 and 9.40E+01
[2]; Log[inhibitor] (M) -5.000
  parasite growth, replicate wells (Fig 1b): 1.00E+00 (2×) and 0.00E+00
[2]; Log[inhibitor] (M) -5.301
  parasite growth, replicate wells (Fig 1b): 0.00E+00 (2×) and -2.00E+00
[2]; Log[inhibitor] (M) -5.602
  parasite growth, replicate wells (Fig 1b): 1.00E+00 and -1.00E+00 and 2.00E+00
[2]; Log[inhibitor] (M) -5.903
  parasite growth, replicate wells (Fig 1b): 1.70E+01 and 1.20E+01 and 1.60E+01
[2]; Log[inhibitor] (M) -6.204
  parasite growth, replicate wells (Fig 1b): 4.80E+01 (2×) and 4.40E+01
[2]; Log[inhibitor] (M) -6.505
  parasite growth, replicate wells (Fig 1b): 8.30E+01 (2×) and 8.20E+01
[2]; Log[inhibitor] (M) -6.806
  parasite growth, replicate wells (Fig 1b): 1.04E+02 and 1.00E+02 and 1.01E+02
[2]; Log[inhibitor] (M) -7.107
  parasite growth, replicate wells (Fig 1b): 8.30E+01 and 8.10E+01 and 8.20E+01
[2]; Log[inhibitor] (M) -7.408
  parasite growth, replicate wells (Fig 1b): 8.20E+01 and 7.90E+01 and 8.10E+01
[2]; Log[inhibitor] (M) -7.709
  parasite growth, replicate wells (Fig 1b): 9.90E+01 and 8.20E+01 and 1.00E+02
[2]; Log[inhibitor] (M) -8.010
  parasite growth, replicate wells (Fig 1b): 9.50E+01 and 1.05E+02 and 1.00E+02
[2]; Log[inhibitor] (M) -8.311
  parasite growth, replicate wells (Fig 1b): 8.90E+01 and 1.00E+02 and 9.90E+01
[2]; Plasmodium falciparum, DD2, SI Fig 16b, values on -log scale, read-out: ABS - Dd2-2D4 (converted)
  EC50: 596 nM
[3]; Log[inhibitor] (M) -6.301
  dose-response signal (normalized), SI Fig 8: 1.92E-01 and 4.91E-02 and 9.09E-02 and 1.28E-01 and 2.12E-01 and 1.32E-01
[3]; Log[inhibitor] (M) -6.602
  dose-response signal (normalized), SI Fig 8: 2.13E-01 and 1.64E-01 and 1.25E-01 and 4.31E-02 and 9.86E-02 and 8.65E-02
[3]; Log[inhibitor] (M) -6.904
  dose-response signal (normalized), SI Fig 8: 1.14E-01 and 8.81E-02 and 8.34E-02 and 1.41E-01 and 2.01E-01 and 1.23E-01
[3]; Log[inhibitor] (M) -7.205
  dose-response signal (normalized), SI Fig 8: 2.07E-01 and 2.31E-01 and 1.85E-01 and 3.09E-01 and 3.02E-01 and 1.82E-01
[3]; Log[inhibitor] (M) -7.506
  dose-response signal (normalized), SI Fig 8: 4.98E-01 and 4.91E-01 and 5.79E-01 and 3.60E-01 and 6.32E-01 and 4.92E-01
[3]; Log[inhibitor] (M) -7.796
  dose-response signal (normalized), SI Fig 8: 7.43E-01 and 8.09E-01 and 7.32E-01 and 8.58E-01 and 7.28E-01 and 7.94E-01
[3]; Log[inhibitor] (M) -8.097
  dose-response signal (normalized), SI Fig 8: 9.39E-01 and 7.78E-01 and 8.55E-01 and 1.05E+00 and 7.40E-01 and 9.07E-01
[3]; Log[inhibitor] (M) -8.407
  dose-response signal (normalized), SI Fig 8: 8.45E-01 and 1.01E+00 and 1.04E+00 and 1.10E+00 and 1.00E+00 and 9.65E-01
[3]; Log[inhibitor] (M) -8.708
  dose-response signal (normalized), SI Fig 8: 1.03E+00 and 1.01E+00 and 9.69E-01 and 1.00E+00 and 9.25E-01 and 9.85E-01
[3]; Log[inhibitor] (M) -9.018
  dose-response signal (normalized), SI Fig 8: 1.01E+00 and 9.85E-01 and 9.47E-01 and 1.02E+00 (2×) and 9.53E-01
[3]; Log[inhibitor] (M) -9.319
  dose-response signal (normalized), SI Fig 8: 1.08E+00 and 9.09E-01 and 9.54E-01 and 9.77E-01 and 1.04E+00 and 9.33E-01
[3]; Log[inhibitor] (M) -9.620
  dose-response signal (normalized), SI Fig 8: 9.48E-01 and 9.58E-01 and 1.04E+00 and 1.08E+00 and 1.01E+00 and 9.21E-01
[3]; Log[inhibitor] (M) -9.921
  dose-response signal (normalized), SI Fig 8: 1.02E+00 and 1.01E+00 and 9.29E-01 and 9.34E-01 and 1.07E+00 and 9.91E-01
[3]; Log[inhibitor] (M) -10.097
  dose-response signal (normalized), SI Fig 8: 9.97E-01 and 1.11E+00 (2×) and 9.85E-01 and 1.06E+00 and 9.77E-01
[3]; Log[inhibitor] (M) -10.585
  dose-response signal (normalized), SI Fig 8: 1.09E+00 and 8.10E-01 and 1.01E+00 and 1.14E+00 and 1.16E+00 and 1.07E+00
[3]; SI Fig 16a, values on -log scale
  PfcProRS -- best Kd: 8.144
[4]; HsProRS (KD [nM]) + ATP, 500 μM ATP, 250 nM MAT379
  Kd: 954 nM
[4]; HsProRS (KD [nM]) −, absence of substrates, 250 nM MAT379
  Kd: 371 nM
[4]; HsProRS - best Kd, SI Fig 16a, values on -log scale
  Kd: 2.16 nM
[4]; Log[inhibitor] (M) -5.000
  normalized TR-FRET ligand displacement signal, dose-response replicates (SI Fig 6): 1.03E-01 and 7.51E-02 and 1.04E-01
  TR-FRET dose-response, normalized signal (SI Fig 11): 8.64E-04 and 3.42E-02 and 3.40E-02
[4]; Log[inhibitor] (M) -5.301
  normalized TR-FRET ligand displacement signal, dose-response replicates (SI Fig 6): 1.90E-01 and 1.89E-01 and 1.86E-01
  TR-FRET dose-response, normalized signal (SI Fig 11): 7.30E-02 and 5.51E-02 and 3.97E-02
[4]; Log[inhibitor] (M) -5.602
  normalized TR-FRET ligand displacement signal, dose-response replicates (SI Fig 6): 3.08E-01 and 2.37E-01 and 3.84E-01
  TR-FRET dose-response, normalized signal (SI Fig 11): 1.33E-01 and 1.75E-01 and 1.42E-01
[4]; Log[inhibitor] (M) -5.903
  normalized TR-FRET ligand displacement signal, dose-response replicates (SI Fig 6): 6.24E-01 and 5.01E-01 and 5.97E-01

— article PMC9403976, “Elucidating the path to Plasmodium prolyl-tRNA synthetase inhibitors that overcome halofuginone resistance” (Nature Communications, 2022)
